≈ marks a conversion by molar mass, not a printed value.

Consider 2 compounds from US4742045A, “Glycopeptide antibiotics” (SmithKline Beckman Corporation, priority 1986, dated 1988).

For one series, the system named is Streptococcus pyogenes. In words: standard microtiter assay, minimum inhibitory concentration. Format: cell-based. The conditions noted are these: Table 2 test organism 11, Streptococcus pyogenes. From the text:
(§1) Representative results of standard microtiter assays are reported in Tables 1, 2 and 3 which follow, as the minimum inhibitory concentration of antibiotic (μg/ml).
(§2) In Table 1, test organisms 1-13 were different strains of Staphylococcus aureus, and 14-16 were different strains of Staphylococcus epidermidis. In Table 2, test organisms 1-5 were different strains of S. aureus; 6, 8, 12 and 14 were different strains of S. epidermidis; 7 was a Staphylococcus haemolyticus; 9 and 10 were different strains of Streptococcus faecalis; 11 was a Streptococcus pyogenes; and 13 was a Staphylococcus saprophyticus. In Table 3, test organisms 1-3 were different strains of S. aureus; 4 and 6 were different strains of S. epidermidis; 5 was a S. haemolyticus and 7 and 8 were different strains of Streptococcus faecalis. Except where individual components are indicated, the CWI-785 antibiotic employed was the CWI-785 complex; in some cases, HCl salts of the CWI-785 antibiotic were employed.

For the next series, the system named is Streptococcus faecalis. Described as above. Format: cell-based.
From the text: as §1, §2
(§3) The number of strains tested is shown in parentheses below each organism. The average MIC is reported in μg/ml.
(§4) In Table 5 are shown data from standard microtiter assays carried out in a presence of no serum, 50% human serum (hum.) and 50% mouse serum (mse.). The test organisms were 1: S. aureus; 2,4 and 5: different strains of S. epidermidis; 3: S. haemolyticus; 6: S. saprophyticus; 7 and 8: different strains of S. faecalis.

For the next series, the system named is Staphylococcus aureus. The series is described as above. Format: cell-based. The conditions noted are these: for MIC: Table 5 organism 1 S. aureus.
From the text: as §1, §2, §3, §4

Series [1] relates to Staphylococcus haemolyticus. The series is described as above. Format: cell-based. The conditions noted are these: for MIC: Table 5 organism 3 S. haemolyticus.
From the text: as §1, §2, §4

Series [2] has as its system Staphylococcus saprophyticus. The series is described as above. The conditions noted are these: for MIC: Table 5 organism 6 S. saprophyticus. Format: cell-based.
From the text: as §1, §2, §4

The test system of series [3] is Staphylococcus epidermidis. The series is described as above. The class given is cell-based.
From the text: as §1, §2, §4

Another series is described as follows: pH of aqueous solution. The class given is physicochemical. The conditions noted are these: 100 mg/ml aqueous solution. Here is the method:
(§5) The solubility of the potassium salt is about 300 mg/ml in water.

Series [4] is classed as physicochemical.
From the text: The invention includes within its scope pharmaceutical compositions containing at least one of the above-mentioned antibiotic compounds and a pharmaceutically acceptable carrier. The compositions may also contain other active antibacterial agents. The compositions may be made up in any pharmaceutical form appropriate for the route of administration in question. Such compositions are exemplified by solid compositions for oral administration, such as tablets, capsules, pills, powders and granules; liquid compositions for oral administration such as solutions, suspensions, syrups and elixirs; preparations for parenteral administration such as sterile solutions, suspensions or emulsions; and preparations for topical administration such as gels, creams, ointments or salves. […] In 40% prophylene glycol in water (V/V), the solubility of HPB4 free base is greater than about 200 mg/ml. […] The solubility of HPB4.K is about 300 mg/ml. The solubility of HPB4.2HCl is about 600 mg/ml.
as §5

What is called MIC is the lowest concentration found to suppress growth. On to `CNC(C(=O)NC1C(=O)NC(CC[S+](C)[O-])C(=O)NC2C(=O)NC3C(=O)NC(C(=O)NC(C(=O)O)c4cc(O)cc(O)c4-c4cc3ccc4O)C(OC3CC(N)C(O)C(C)O3)c3ccc(c(Cl)c3)Oc3cc2cc(c3O)Oc2ccc(cc2)C1O)c1ccc(O)cc1` (stereo not shown) [HPB3], for which the minimum inhibitory concentration was 0.1 µg/mL (≈ 0.0765 µM) in the series with Streptococcus pyogenes; 0.8 µg/mL (≈ 0.612 µM) in the series with Streptococcus faecalis (Table 2 test organism 9, Streptococcus faecalis strain); 0.8 µg/mL (≈ 0.612 µM) in the series with Streptococcus faecalis (Table 2 test organism 10, Streptococcus faecalis strain); 0.8 µg/mL (≈ 0.612 µM) with Staphylococcus aureus (Table 2 test organism 1, S. aureus strain); 0.8 µg/mL (≈ 0.612 µM) in the series with Staphylococcus aureus (Table 2 test organism 2, S. aureus strain); 0.8 µg/mL (≈ 0.612 µM) with Staphylococcus aureus (Table 2 test organism 3, S. aureus strain). The minimum inhibitory concentration was 0.4 µg/mL (≈ 0.306 µM) in the series on Staphylococcus aureus (Table 2 test organism 4, S. aureus strain); 0.8 µg/mL (≈ 0.612 µM) with Staphylococcus aureus (Table 2 test organism 5, S. aureus strain); 1.6 µg/mL (≈ 1.22 µM) in series [1] (Table 2 test organism 7, Staphylococcus haemolyticus); 0.8 µg/mL (≈ 0.612 µM) in series [2] (Table 2 test organism 13, Staphylococcus saprophyticus); 0.8 µg/mL (≈ 0.612 µM) in series [3] (Table 2 test organism 6, S. epidermidis strain); 0.8 µg/mL (≈ 0.612 µM) in series [3] (Table 2 test organism 8, S. epidermidis strain). Besides, the minimum inhibitory concentration was 0.8 µg/mL (≈ 0.612 µM) in series [3] (Table 2 test organism 12, S. epidermidis strain) and 0.8 µg/mL (≈ 0.612 µM) in series [3] (Table 2 test organism 14, S. epidermidis strain). Further, the minimum inhibitory concentration (MIC) in the series with Streptococcus faecalis (Table 5 organism 7 S. faecalis, 50% Hum. Serum) turned out to be 3.1 µg/mL (≈ 2.37 µM); in the series with Streptococcus faecalis (Table 5 organism 7 S. faecalis, 50% Mse. Serum), 3.1 µg/mL (≈ 2.37 µM); in the series with Streptococcus faecalis (Table 5 organism 7 S. faecalis, No Serum) it was 0.8 µg/mL (≈ 0.612 µM); against Streptococcus faecalis (Table 5 organism 8 S. faecalis, 50% Hum. Serum), 6.3 µg/mL (≈ 4.82 µM); with Streptococcus faecalis (Table 5 organism 8 S. faecalis, 50% Mse. Serum), 3.1 µg/mL (≈ 2.37 µM); against Streptococcus faecalis (Table 5 organism 8 S. faecalis, No Serum), 0.8 µg/mL (≈ 0.612 µM). In addition, the MIC was 0.8 µg/mL (≈ 0.612 µM) against Staphylococcus aureus (50% Hum. Serum); 0.8 µg/mL (≈ 0.612 µM) with Staphylococcus aureus (50% Mse. Serum); 0.8 µg/mL (≈ 0.612 µM) in the series on Staphylococcus aureus (No Serum); 6.3 µg/mL (≈ 4.82 µM) in series [1] (50% Hum. Serum); 3.1 µg/mL (≈ 2.37 µM) in series [1] (50% Mse. Serum); 1.6 µg/mL (≈ 1.22 µM) in series [1] (No Serum). For the same compound, the MIC in series [2] (50% Hum. Serum) was found to be 3.1 µg/mL (≈ 2.37 µM); in series [2] (50% Mse. Serum), 3.1 µg/mL (≈ 2.37 µM); in series [2] (No Serum), 0.8 µg/mL (≈ 0.612 µM); in series [3] (Table 5 organism 2 S. epidermidis, 50% Hum. Serum), 6.1 µg/mL (≈ 4.66 µM); in series [3] (Table 5 organism 2 S. epidermidis, 50% Mse. Serum) it was 1.6 µg/mL (≈ 1.22 µM); in series [3] (Table 5 organism 2 S. epidermidis, No Serum) it was 0.8 µg/mL (≈ 0.612 µM). In addition, the MIC in series [3] (Table 5 organism 4 S. epidermidis, 50% Hum. Serum) was determined as 1.6 µg/mL (≈ 1.22 µM); in series [3] (Table 5 organism 4 S. epidermidis, 50% Mse. Serum), 1.6 µg/mL (≈ 1.22 µM); in series [3] (Table 5 organism 4 S. epidermidis, No Serum), 0.8 µg/mL (≈ 0.612 µM); in series [3] (Table 5 organism 5 S. epidermidis, 50% Hum. Serum), 0.8 µg/mL (≈ 0.612 µM); in series [3] (Table 5 organism 5 S. epidermidis, 50% Mse. Serum), 0.8 µg/mL (≈ 0.612 µM); in series [3] (Table 5 organism 5 S. epidermidis, No Serum), 0.8 µg/mL (≈ 0.612 µM).
As to `CNC(C(=O)NC1C(=O)NC(CCSC)C(=O)NC2C(=O)NC3C(=O)NC(C(=O)NC(C(=O)[O-])c4cc(O)cc(O)c4-c4cc3ccc4O)C(OC3CC(N)C(O)C(C)O3)c3ccc(c(Cl)c3)Oc3cc2cc(c3O)Oc2ccc(cc2)C1O)c1ccc(O)cc1.[K+]` (stereo not shown) [HPB4.K], the “pH of aqueous solution” value in the series “pH of aqueous solution” came to 9.29. For the same compound, in series [4], the solubility entry is given as “about 300 mg/ml”.
